Results from patent US9125388B2, “Biological control” (Isis Innovation Limited, priority 1999, dated 2015).

Legend:
Experiment in all cases: Recombinant chromosome experiments: parents raised on supplement, progeny on normal food, adults by sex (25, 18 or 29° C.)
Format in all cases: in vivo, Drosophila melanogaster
[1] = system: Sxlp^e tTa, tRe Msl-1^Mpu on the X chromosome
Experimental: (§1) 40-45 young females and 20-25 young males raised at 25° C. upon food with the indicated tetracycline supplement were allowed to mate, then transferred to normal (tetracycline-free) food after 3-4 days. These flies were transferred to fresh vials of normal food every day for 12 days, then removed on the 13th day. All the vials were incubated at 25° C. while the progeny developed. The numbers of male and female progeny emerging as adults in each vial were recorded.
(§2) A standard range of additive concentrations were used in the following experiments (0.05-20 μg/ml). […] (=“not done”)
(§3) All the preceding experiments were performed at 25° C., the standard temperature for Drosophila culture. However, the insects in the wild would clearly be exposed to varying temperatures, so we investigated the extent to which the efficiency of the system is affected by temperature. As with the recombinant chromosome experiments, 40-45 young virgin females and 20-25 young males raised at 25° C. upon food with the indicated tetracycline supplement were allowed to mate, then transferred to normal (tetracycline-free) food after 3-4 days. These flies were transferred to fresh vials of normal food every day. The numbers of male and female progeny emerging as adults in each vial were recorded. These experiments were performed at either 18° C. or 29° C.

[2] = system: Sxl^pe-tTA, tRE-Msl-2^Nopu on the third chromosome; conditions: for Female progeny per daily vial / Female progeny Total / Male progeny Total: 25° C.; for Female progeny per daily vial: Day 1-12 on tetracycline-free food; for Female progeny Total / Male progeny Total: Day 1-12 total
Experimental: as §1, §2, §3

[3] = system: Sxl^pe-tTA, tRE-Ras64B^V12 on the X chromosome; conditions: for Female progeny / Male progeny: 18° C., then tetracycline-free food; for Female progeny per daily vial / Female progeny Total / Male progeny Total: 25° C.; for Female progeny per daily vial: Day 1-12 on tetracycline-free food; for Female progeny Total / Male progeny Total: Day 1-12 total; for Female progeny emerging as adults / Male progeny emerging as adults: 29° C.
Experimental: as §1, §2, §3

[4] = system: Sxl^pe-tTA, tRE-Ras64B^V12 on the third chromosome; conditions: for Female progeny Total / Male progeny Total: Day 1-12 total
Experimental: as §1, §2, §3

[5] = parents raised on tetracycline 0.1 μg/ml, 18° C.
[6] = parents raised on tetracycline 0.1 μg/ml, 29° C.
[7] = parents raised on tetracycline 1 μg/ml, 18° C.
[8] = parents raised on tetracycline 1 μg/ml, 29° C.
[9] = parents raised on tetracycline 5 μg/ml, 18° C.
[10] = parents raised on tetracycline 5 μg/ml, 29° C.
[11] = parents raised on Tet. 0.1 μg/ml
[12] = parents raised on Tet. 20 μg/ml
[13] = parents raised on Tet. 100 μg/ml
[14] = parents raised on Tet. 500 μg/ml
[15] = parents raised on Tet. 1000 μg/ml
[16] = parents raised on Tet. 2000 μg/ml
[17] = parents raised on Tetracycline 0.1 μg/ml
[18] = parents raised on Tetracycline 1 μg/ml
[19] = parents raised on Tetracycline 5 μg/ml
[20] = parents raised on tetracycline 0.1 μg/ml
[21] = parents raised on tetracycline 1 μg/ml
[22] = parents raised on tetracycline 5 μg/ml
[23] = parents raised on Tet. 0.1 μg/ml, 25° C.
[24] = parents raised on Tet. 1 μg/ml, 25° C.
[25] = parents raised on Tet. 5 μg/ml, 25° C.
[26] = parents raised on Tet. 20 μg/ml, 25° C.
[27] = parents raised on Tet. 100 μg/ml, 25° C.
[28] = parents raised on Tet. 500 μg/ml, 25° C.
[29] = parents raised on Tet. 1000 μg/ml, 25° C.
[30] = parents raised on Tet. 2000 μg/ml, 25° C.

SMILES: CN(C)[C@@H]1C(O)=C(C(N)=O)C(=O)[C@@]2(O)C(O)=C3C(=O)c4c(O)cccc4[C@@](C)(O)[C@H]3C[C@@H]12 [Tetracycline, tetracycline]
- Female progeny emerging as adults [1, 5]: 8
- Male progeny emerging as adults [1, 5]: 840
- Female progeny emerging as adults [1, 6]: 0
- Male progeny emerging as adults [1, 6]: 732
- Female progeny emerging as adults [1, 7]: 5
- Male progeny emerging as adults [1, 7]: 927
- Female progeny emerging as adults [1, 8]: 0
- Male progeny emerging as adults [1, 8]: 771
- Female progeny emerging as adults [1, 9]: 8
- Male progeny emerging as adults [1, 9]: 837
- Female progeny emerging as adults [1, 10]: 0
- Male progeny emerging as adults [1, 10]: 816
- Female progeny per daily vial [2, 11]: 0
- Female progeny Total [2, 11]: 0
- Male progeny Total [2, 11]: 1267
- Female progeny per daily vial ([2]; parents raised on Tet. 1 μg/ml): 0
- Female progeny Total ([2]; parents raised on Tet. 1 μg/ml): 0
- Male progeny Total ([2]; parents raised on Tet. 1 μg/ml): 1171
- Female progeny per daily vial ([2]; parents raised on Tet. 5 μg/ml): 0
- Female progeny Total ([2]; parents raised on Tet. 5 μg/ml): 0
- Male progeny Total ([2]; parents raised on Tet. 5 μg/ml): 1165
- Female progeny per daily vial [2, 12]: 0
- Female progeny Total [2, 12]: 0
- Male progeny Total [2, 12]: 1127
- Female progeny per daily vial [2, 13]: 0
- Female progeny Total [2, 13]: 0
- Male progeny Total [2, 13]: 1168
- Female progeny per daily vial [2, 14]: 0
- Female progeny Total [2, 14]: 0
- Male progeny Total [2, 14]: 1137
- Female progeny Total [2, 15]: 3
- Male progeny Total [2, 15]: 1309
- Female progeny Total [2, 16]: 32
- Male progeny Total [2, 16]: 1325
- Female progeny emerging as adults [2, 5]: 2
- Male progeny emerging as adults [2, 5]: 973
- Female progeny emerging as adults [2, 6]: 0
- Male progeny emerging as adults [2, 6]: 749
- Female progeny emerging as adults [2, 7]: 9
- Male progeny emerging as adults [2, 7]: 985
- Female progeny emerging as adults [2, 8]: 0
- Male progeny emerging as adults [2, 8]: 737
- Female progeny emerging as adults [2, 9]: 5
- Male progeny emerging as adults [2, 9]: 983
- Female progeny emerging as adults [2, 10]: 0
- Male progeny emerging as adults [2, 10]: 718
- Female progeny [3, 17]: 8
- Male progeny [3, 17]: 982
- Female progeny [3, 18]: 10
- Male progeny [3, 18]: 912
- Female progeny [3, 19]: 7
- Male progeny [3, 19]: 871
- Female progeny per daily vial [3, 11]: 0
- Female progeny Total [3, 11]: 0
- Male progeny Total [3, 11]: 1262
- Female progeny per daily vial ([3]; parents raised on Tet. 1 μg/ml): 0
- Female progeny Total ([3]; parents raised on Tet. 1 μg/ml): 0
- Male progeny Total ([3]; parents raised on Tet. 1 μg/ml): 1399
- Female progeny per daily vial ([3]; parents raised on Tet. 5 μg/ml): 0
- Female progeny Total ([3]; parents raised on Tet. 5 μg/ml): 0
- Male progeny Total ([3]; parents raised on Tet. 5 μg/ml): 1359
- Female progeny per daily vial [3, 12]: 0
- Female progeny Total [3, 12]: 0
- Male progeny Total [3, 12]: 1398
- Female progeny per daily vial [3, 13]: 0
- Female progeny Total [3, 13]: 0
- Male progeny Total [3, 13]: 1469
- Female progeny Total [3, 14]: 25
- Male progeny Total [3, 14]: 1478
- Female progeny Total [3, 15]: 49
- Male progeny Total [3, 15]: 1349
- Female progeny Total [3, 16]: 92
- Male progeny Total [3, 16]: 1439
- Female progeny emerging as adults [3, 20]: 0
- Male progeny emerging as adults [3, 20]: 716
- Female progeny emerging as adults [3, 21]: 0
- Male progeny emerging as adults [3, 21]: 711
- Female progeny emerging as adults [3, 22]: 0
- Male progeny emerging as adults [3, 22]: 715
- Female progeny per daily vial ([4]; parents raised on Tet. 0.1 μg/ml, 25° C., Day 1-12 on tetracycline-free food): 0
- Female progeny Total [4, 23]: 0
- Male progeny Total [4, 23]: 1541
- Female progeny per daily vial ([4]; parents raised on Tet. 1 μg/ml, 25° C., Day 1-12 on tetracycline-free food): 0
- Female progeny Total [4, 24]: 0
- Male progeny Total [4, 24]: 1441
- Female progeny per daily vial ([4]; parents raised on Tet. 5 μg/ml, 25° C., Day 1-12 on tetracycline-free food): 0
- Female progeny Total [4, 25]: 0
- Male progeny Total [4, 25]: 1421
- Female progeny per daily vial ([4]; parents raised on Tet. 20 μg/ml, 25° C., Day 1-12 on tetracycline-free food): 0
- Female progeny Total [4, 26]: 0
- Male progeny Total [4, 26]: 1487
- Female progeny per daily vial ([4]; parents raised on Tet. 100 μg/ml, 25° C., Day 1-12 on tetracycline-free food): 0
- Female progeny Total [4, 27]: 0
- Male progeny Total [4, 27]: 1416
- Female progeny Total [4, 28]: 72
- Male progeny Total [4, 28]: 1388
- Female progeny Total [4, 29]: 87
- Male progeny Total [4, 29]: 1416
- Male progeny per daily vial ([4]; parents raised on Tet. 2000 μg/ml, 25° C., Day 1-12 on tetracycline-free food, listed as Tet.): 123
- Female progeny Total [4, 30]: 161
- Male progeny Total [4, 30]: 1438
- Female progeny emerging as adults [4, 5]: 6
- Male progeny emerging as adults [4, 5]: 1065
- Female progeny emerging as adults [4, 6]: 0
- Male progeny emerging as adults [4, 6]: 781
- Female progeny emerging as adults [4, 7]: 9
- Male progeny emerging as adults [4, 7]: 1124
- Female progeny emerging as adults [4, 8]: 0
- Male progeny emerging as adults [4, 8]: 749
- Female progeny emerging as adults [4, 9]: 7
- Male progeny emerging as adults [4, 9]: 989
- Female progeny emerging as adults [4, 10]: 0
- Male progeny emerging as adults [4, 10]: 741
